Experimental data as given in patent publication US4410541A, “Composite for improving lipid metabolism” (Nihon Nosan Kogyo K.K., priority 1981, dated 1983).

Test: Animal Experiment 2: whole cholesterol in hypercholesterolemia rats (Zurkowski's method)
Format: in vivo, rats of Wistar descent
Details: male Wistar rats on cholesterol feed, five days; composite oral 75 μg monoiodohistidine/day/rat, contrast groups equal iodine amount; control group 335
Protocol: A test groups consisted of ten heads of male rats of Wistar descent, which weighed about 120 g. The test group was fed in a cage at 24±1° C. of temperature and at 50 to 60% of humidity. […] The composite to be tested was made from the yolk of egg of the egg-laying hens to which calcium iodate was fed. The composite was dissolved in distilled water, and then orally dosed to the rats by means of a stomach probe at the rate of 75 μg of monoiodohistidine per day per rat for five days in parallel with feeding of the cholesterol containing feed. The rats were caused to fast for a night after composite dosing was finished, and next morning blood was taken from fundus of the rat's eyes in order to measure the amount of whole cholesterol by Zurkowski's method.
A control group, a contrast group (1) and a contrast group (2) equally consisted of rats which got hypercholesterolemia by the same process as mentioned in the test group. While potassium iodide was dosed to the contrast group (1) so that the iodine amount would be equal to that of the test group, iodo-lecithin was dosed to the contrast group (2) so that the iodine amount would be equal to that of the test group. On the other hand, no iodine agent or compound was dosed to the control group. And, as to the rats of these groups, the amount of whole cholesterol was measured by the same method as mentioned in the test group.

Compound | Amount of whole Cholesterol [mg/dL]
[I-].[K+] [potassium iodide] | 323
iodo-lecithin | 325
